Results: paper PMC6598531, “Appraisal of anti-protozoan activity of nitroaromatic benzenesulfonamides inhibiting carbonic anhydrases from Trypanosoma cruzi and Leishmania donovani” (Journal of Enzyme Inhibition and Medicinal Chemistry, 2019)
≈ marks a conversion by molar mass, not a printed value. Like-named read-outs stand apart in the source and are kept apart here.

Tests used:
LdcCA = LdcCA (Leishmania infantum, UniProt A4HSV2); assay: biochemical
T. cruzi Dm 28c = assay: growth inhibition of T. cruzi Dm28c epimastigotes (resazurin); type: cell-based; details: Trypanosoma cruzi, 48 h; for MIC: epimastigotes, 28 °C
T. cruzi Y = assay: growth inhibition of T. cruzi Y epimastigotes (resazurin); type: cell-based; details: Trypanosoma cruzi, 48 h, 28 °C
L. amazonensis = assay: growth inhibition of L. amazonensis promastigotes (resazurin); type: cell-based; details: Leishmania amazonensis, 48 h; for MIC: promastigotes, 28 °C
L. infantum = assay: growth inhibition of L. infantum promastigotes (resazurin); type: cell-based; details: Leishmania infantum, 48 h; for MIC: promastigotes, 28 °C
in vitro = details: mouse, RAW 264.7 macrophages
hCA I = hCA I (Homo sapiens, UniProt P00915); assay: stopped flow CO2 hydrase assay, hCA I inhibition
Sequence of hCA I (P00915 whole entry): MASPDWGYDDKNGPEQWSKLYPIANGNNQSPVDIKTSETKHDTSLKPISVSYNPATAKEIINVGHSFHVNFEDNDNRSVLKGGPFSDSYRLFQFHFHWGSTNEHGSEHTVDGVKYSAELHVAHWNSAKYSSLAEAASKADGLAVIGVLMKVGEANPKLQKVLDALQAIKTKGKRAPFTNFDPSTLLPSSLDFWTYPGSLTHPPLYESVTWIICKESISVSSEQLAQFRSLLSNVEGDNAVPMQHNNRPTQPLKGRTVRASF

hCA II = hCA II (Homo sapiens, UniProt P00918); assay: stopped flow CO2 hydrase assay, hCA II inhibition
[1] = read-out: KI hCA I, stopped flow CO2 hydrase assay, mean from three assays
[2] = read-out: KI hCA II, stopped flow CO2 hydrase assay, mean from three assays
[3] = concentration which reduced the number of promastigotes by 50%

Sequence of LdcCA (A4HSV2 1-306): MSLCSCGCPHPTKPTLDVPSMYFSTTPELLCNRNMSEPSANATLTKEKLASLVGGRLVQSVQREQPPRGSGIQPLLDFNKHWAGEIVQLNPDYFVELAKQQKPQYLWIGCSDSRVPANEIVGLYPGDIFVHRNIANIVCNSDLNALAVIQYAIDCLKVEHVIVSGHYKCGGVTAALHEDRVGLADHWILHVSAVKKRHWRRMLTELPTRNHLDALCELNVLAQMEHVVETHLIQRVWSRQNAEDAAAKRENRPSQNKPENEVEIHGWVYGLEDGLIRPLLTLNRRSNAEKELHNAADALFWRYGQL

SMILES | SI (KI1/KI2) CA I/LdcCA (LdcCA) | SI (KI1/KI2) CA II/LdcCA (LdcCA) | Ki (LdcCA; read-out: KI LdCA) [nM] | MIC (T. cruzi Dm 28c) [µM] | MIC (T. cruzi Y) [µM] | MIC (L. amazonensis) [µM] | MIC (L. infantum) [µM] | CC50 at 48 h (in vitro) [µM] | Ki (hCA I; [1]) [µM] | Ki (hCA II; [2]) [nM] | IC50 (L. amazonensis; [3]) [nM] | IC50 (L. infantum; [3]) [nM] | IC50 (T. cruzi Dm 28c; concentration which reduced the proliferation of epimastigotes by 50%) [µM] | Ki (hCA II) [nM] | Ki (hCA I) [µM] | Ki (LdcCA) [nM]
COc1cccc(NC(=O)Nc2cc(S(N)(=O)=O)cc([N+](=O)[O-])c2O)c1 [Compound 18] | 8.6 | 5.4 | 950 | > 256 | > 256 | > 400 | > 400 | > 256 | 8.21 | 5150 |  |  |  |  |  | 
NS(=O)(=O)c1cc(NC(=O)Nc2c(F)c(F)c(F)c(F)c2F)c(O)c([N+](=O)[O-])c1 [Compound 17] | 0.5 | 0.2 | 1360 | > 256 | > 256 | > 400 | > 400 | > 256 | 0.69 | 270 |  |  |  |  |  | 
Cc1cc(C)cc(NC(=O)Nc2cc(S(N)(=O)=O)cc([N+](=O)[O-])c2O)c1 [Compound 20] | 4.5 | 0.2 | 1860 |  |  |  |  |  | 8.33 | 450 |  |  |  |  |  | 
C[C@@H]1[C@H](O)[C@@H](C)/C=C/C=C/C=C/C=C/C=C/C=C/C=C/[C@H](O[C@@H]2O[C@H](C)[C@@H](O)[C@H](N)[C@@H]2O)C[C@@H]2O[C@](O)(C[C@@H](O)C[C@@H](O)[C@H](O)CC[C@@H](O)C[C@@H](O)CC(=O)O[C@H]1C)C[C@H](O)[C@H]2C(=O)O [Amp, amphotericin B, reference compound] |  |  |  |  |  | 8 (≈ 7.39 µg/mL) | 8 (≈ 7.39 µg/mL) | 1 |  |  | 1650 ± 280 | 1770 ± 350 |  |  |  | 
NS(=O)(=O)c1ccc(O)c([N+](=O)[O-])c1 [Compound 4] | 4.3 | 1.1 | 210 | > 256 | > 256 | > 400 | > 400 | 97.7 ± 11.1 | 0.91 | 240 |  |  |  |  |  | 
NS(=O)(=O)c1cc(NC(=O)NCCc2ccccc2)c(O)c([N+](=O)[O-])c1 [Compound 22] | 10.8 | 3.6 | 860 |  |  |  |  |  | 9.29 | 3080 |  |  |  |  |  | 
O=C(Cn1ccnc1[N+](=O)[O-])NCc1ccccc1 [Bzn, benznidazole, reference compound] |  |  |  | 32 (≈ 8.33 µg/mL) | 32 (≈ 8.33 µg/mL) |  |  | 115 ± 9.48 |  |  |  |  | 16.6 ± 1.51 |  |  | 
NS(=O)(=O)c1cc(NC(=O)Nc2ccc(C(F)(F)F)cc2)c(O)c([N+](=O)[O-])c1 [Compound 15] | 2.2 | 0.1 | 2340 |  |  |  |  |  | 5.2 |  |  |  |  | 240 |  | 
Cc1cc(C)[n+](-c2cc(S(N)(=O)=O)cc([N+](=O)[O-])c2O)c(C)c1 [Compound 11] | >7.6 | 0.3 | 6570 | > 256 | > 256 | > 400 | > 400 | > 256 |  | 1810 |  |  |  |  | > 50 | 
CC(=O)OC[C@@H]1O[C@@H](OC(C)=O)[C@@H](NC(=O)Nc2cc(S(N)(=O)=O)cc([N+](=O)[O-])c2O)[C@H](OC(C)=O)[C@H]1OC(C)=O [Compound 24] | 1.6 | 0.5 | 3640 | > 256 | > 256 | > 400 | > 400 | > 256 | 5.67 | 1890 |  |  |  |  |  | 
Nc1cc(S(N)(=O)=O)cc([N+](=O)[O-])c1O [Compound 8, 3-amino-4-hydroxy-5-nitro-benzenesulfonamide] | 13.4 | 1.3 | 460 | > 256 | > 256 | > 400 | > 400 | > 256 | 6.18 | 610 |  |  |  |  |  | 
NS(=O)(=O)c1cc(NC(=O)Nc2ccc3c(c2)OCO3)c(O)c([N+](=O)[O-])c1 [Compound 19] | >24.6 | 2.1 | 2030 | > 256 | > 256 | > 400 | > 400 | 173 ± 10.4 |  | 4330 |  |  |  |  |  | 
NS(=O)(=O)c1cc(O)c(O)c([N+](=O)[O-])c1 [Compound 12] | 15.9 | 1.6 | 390 |  |  |  |  |  | 6.21 | 640 |  |  |  |  |  | 
NS(=O)(=O)c1cc(NC(=O)c2ccc(F)cc2)c(OC(=O)c2ccc(F)cc2)c([N+](=O)[O-])c1 [Compound 10] | 0.3 | 0.1 | 8490 | > 256 | > 256 | > 400 | > 400 | 180 ± 21.3 | 2.92 | 460 |  |  |  |  |  | 
NS(=O)(=O)c1cc(NC(=O)c2ccccc2)c(OC(=O)c2ccccc2)c([N+](=O)[O-])c1 [Compound 9] | 0.4 | 0.1 | 3870 |  |  |  |  |  | 1.38 | 390 |  |  |  |  |  | 
NS(=O)(=O)c1cc(NC(=O)Nc2ccc(F)cc2)c(O)c([N+](=O)[O-])c1 [Compound 14] | 5.5 | 0.5 | 980 |  |  |  |  |  | 5.39 | 530 |  |  |  |  |  | 
Cc1cc(NC(=O)Nc2cc(S(N)(=O)=O)cc([N+](=O)[O-])c2O)ccc1F [Compound 16] | 2.6 | 0.1 | 2960 |  |  |  |  |  | 7.58 | 210 |  |  |  |  |  | 
NS(=O)(=O)c1cc([N+](=O)[O-])c(OC(=O)c2ccccc2)c([N+](=O)[O-])c1 [Compound 7] | 1.0 | 0.2 |  |  |  |  |  |  | 4.79 | 840 |  |  |  |  |  | 4680
NS(=O)(=O)c1cc(NC(=O)N[C@@H]2C(O)O[C@@H](CO)[C@H](O)[C@H]2O)c(O)c([N+](=O)[O-])c1 (stereo partly shown) [Compound 25] | 1.7 | 0.3 | 2970 |  |  |  |  |  | 4.92 | 860 |  |  |  |  |  | 
NS(=O)(=O)c1cc(NC(=O)Nc2cc(C(F)(F)F)cc(C(F)(F)F)c2)c(O)c([N+](=O)[O-])c1 [Compound 21] | 1.6 | 0.5 | 3650 | > 256 | > 256 | > 400 | > 400 | > 256 | 5.99 | 1720 |  |  |  |  |  | 
NS(=O)(=O)c1cc(NC(=O)Nc2ccccc2)c(O)c([N+](=O)[O-])c1 [Compound 13] | >47.2 | 2.6 | 1060 |  |  |  |  |  |  | 2780 |  |  |  |  |  | 
NS(=O)(=O)c1cc(NC(=O)NCc2ccco2)c(O)c([N+](=O)[O-])c1 [Compound 23] | >49.0 | 2.5 | 1020 |  |  |  |  |  |  | 2530 |  |  |  |  |  | 
